# According to article PMC4965148 (PLoS ONE, 2016):
# Assays:
# [1] = biological target: Glucocorticoid receptor (Homo sapiens, UniProt P04150); experiment: Selectivity panel, binding
# [2] = biological target: 5-HT2A (Homo sapiens, UniProt P28223); experiment: Selectivity panel, functional; type: cell-based
# [3] = biological target: Histamine H1 (Homo sapiens, UniProt P35367); experiment: Selectivity panel, binding
# Histamine H1, sequence (P35367 whole entry): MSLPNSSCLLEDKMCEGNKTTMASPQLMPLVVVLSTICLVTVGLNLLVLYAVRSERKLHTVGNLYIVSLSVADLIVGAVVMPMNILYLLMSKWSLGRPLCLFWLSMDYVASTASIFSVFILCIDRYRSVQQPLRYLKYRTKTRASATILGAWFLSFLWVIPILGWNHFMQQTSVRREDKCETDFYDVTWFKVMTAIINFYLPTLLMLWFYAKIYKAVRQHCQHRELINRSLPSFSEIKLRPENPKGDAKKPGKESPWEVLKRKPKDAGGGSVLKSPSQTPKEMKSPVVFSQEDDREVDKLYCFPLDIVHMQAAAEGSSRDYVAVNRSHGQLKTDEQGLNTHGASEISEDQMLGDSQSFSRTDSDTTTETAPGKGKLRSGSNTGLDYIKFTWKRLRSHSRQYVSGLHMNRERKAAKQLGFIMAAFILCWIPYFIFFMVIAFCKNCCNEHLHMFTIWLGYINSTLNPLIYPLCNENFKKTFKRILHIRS
# 5-HT2A, sequence (P28223 whole entry): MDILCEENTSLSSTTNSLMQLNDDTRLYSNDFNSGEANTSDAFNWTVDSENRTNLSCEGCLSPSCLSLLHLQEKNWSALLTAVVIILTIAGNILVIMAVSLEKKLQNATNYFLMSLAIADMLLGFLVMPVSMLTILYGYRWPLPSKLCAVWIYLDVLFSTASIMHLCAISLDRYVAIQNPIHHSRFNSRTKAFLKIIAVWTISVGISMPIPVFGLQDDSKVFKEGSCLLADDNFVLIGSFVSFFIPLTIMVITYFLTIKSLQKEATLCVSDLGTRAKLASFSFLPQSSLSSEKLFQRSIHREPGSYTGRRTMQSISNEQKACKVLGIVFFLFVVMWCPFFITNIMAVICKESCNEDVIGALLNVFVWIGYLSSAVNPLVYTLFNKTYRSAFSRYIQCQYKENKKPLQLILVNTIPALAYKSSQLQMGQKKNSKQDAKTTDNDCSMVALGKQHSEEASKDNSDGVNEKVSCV
# Glucocorticoid receptor, sequence (P04150 whole entry): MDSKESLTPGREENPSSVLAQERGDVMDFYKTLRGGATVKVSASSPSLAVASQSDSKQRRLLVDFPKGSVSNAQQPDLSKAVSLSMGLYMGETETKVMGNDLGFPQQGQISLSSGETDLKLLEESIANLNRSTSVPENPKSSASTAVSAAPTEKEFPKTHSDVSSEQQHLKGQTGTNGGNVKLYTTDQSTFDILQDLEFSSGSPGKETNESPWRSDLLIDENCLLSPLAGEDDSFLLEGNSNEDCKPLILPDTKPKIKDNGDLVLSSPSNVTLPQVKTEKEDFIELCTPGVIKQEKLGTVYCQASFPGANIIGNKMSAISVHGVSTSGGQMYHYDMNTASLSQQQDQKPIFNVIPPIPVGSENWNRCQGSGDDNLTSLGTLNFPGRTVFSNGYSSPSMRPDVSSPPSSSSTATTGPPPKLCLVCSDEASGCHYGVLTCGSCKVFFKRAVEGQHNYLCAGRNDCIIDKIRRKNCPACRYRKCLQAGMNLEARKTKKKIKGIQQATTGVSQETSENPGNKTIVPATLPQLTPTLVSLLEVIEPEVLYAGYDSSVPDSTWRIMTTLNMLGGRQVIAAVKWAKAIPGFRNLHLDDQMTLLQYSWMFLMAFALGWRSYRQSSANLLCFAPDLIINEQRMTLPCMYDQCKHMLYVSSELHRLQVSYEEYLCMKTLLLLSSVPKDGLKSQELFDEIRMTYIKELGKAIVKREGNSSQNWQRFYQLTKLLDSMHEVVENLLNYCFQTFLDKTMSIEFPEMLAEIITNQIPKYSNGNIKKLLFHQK
smiles,measurement,setting,value
"c1cn(-c2cc(NC3=NC[C@@]4(CN5CCC4CC5)O3)ncn2)cn1 [BMS-933043, (2R)-N-(6-(1H-imidazol-1-yl)-4-pyrimidinyl)-4'H-spiro[4-azabicyclo[2.2.2]octane-2,5'-[1,3]oxazol]-2'-amine]",IC50,[1],> 150 µM
same,EC50,[2],> 10 µM
same,IC50,[3],> 30 µM
